The values below come from patent US5668131A, “Substituted aminoalkylaminopyridines” (BYK Gulden Lomberg Chemische Fabrik GmbH, priority 1993, dated 1997).

As usually defined, the MIC is the smallest concentration in the dilution series that meets the test's criterion for growth inhibition. Read a low MIC as inhibition by little substance.

The subject of this assay is Helicobacter pylori. The experiment in a line: Activity on Helicobacter pylori (MIC, Columbia agar, 4 days growth period). Conditions: Columbia agar (Oxoid), growth period of 4 days; for MIC: Helicobacter pylori, 96 h. It counts as cell-based.

Where a name gives a salt, the structure may show the parent alone. Bounds are passed on as bounds.

Turning to `CCN(CCN(C)c1ccnc(CSc2nc3ccccc3[nH]2)c1Cl)Cc1ccccc1` [Compound 1, 2-{3-Chloro-4-{N-[2-(N-benzyl-N-ethylamino)ethyl]-N-methylamino}-2-pyridyl)-methylthio-1H-benzimidazole trihydrochloride], the MIC was below 1 µg/mL. Take `CN(CCN1CCc2ccccc2C1)c1ccnc(CSc2nc3ccccc3[nH]2)c1Cl` [Compound 2, 2-{3-Chloro-4-{N-[2-(1,2,3,4-tetrahydro-2-isoquinolinyl)ethyl]-N-methylamino}-2-pyridyl}-methylthio-1H-benzimidazole trihydrochloride]: the MIC was below 1 µg/mL. The compound `Cc1c(N(C)CCN(C)Cc2ccco2)ccnc1CSc1nc2ccccc2[nH]1.Cl.Cl.Cl` [Compound 4, 2-{3-Methyl-4-{N-{2-[N-(2-furfuryl)-N-methylamino]-ethyl}-N-methylamino}-2-pyridyl}-methylthio-1H-benzimidazole trihydrochloride] registered an MIC-Value below 1 µg/mL.

For the compound `CN(CCN1CCc2ccccc2C1)c1ccnc(CSc2nc3ncccc3[nH]2)c1Cl` [Compound 5, 2-{3-Chloro-4-{N-[2-(1,2,3,4-tetrahydro-2-isoquinolinyl)ethyl]-N-methylamino)-2-pyridyl}-methylthio-1H-imidazo[5,4-b]pyridine], the MIC is below 1 µg/mL. For the compound `CN(CCN(C)c1ccnc(CSc2nc3ccccc3[nH]2)c1Cl)Cc1ccccc1` [Compound 6, 2-{3-Chloro-4-{N-[2-(N-benzyl-N-methylamino)-ethyl]-N-methylamino}-2-pyridyl}-methylthio-1H-benzimidazole trihydrochloride], the minimum inhibitory concentration (MIC) was below 1 µg/mL. Same read-out and setting: the figure for `CN(CCc1ccccc1)CCN(C)c1ccnc(CSc2nc3ccccc3[nH]2)c1Cl` [Compound 9, 2-{3-Chloro-4-{N-[2-(N-methyl-N-phenethylamino)-ethyl]-N-methylamino}-2-pyridyl}-methylthio-1H-benzimidazole trihydrochloride] is below 1 µg/mL; for `CN(CCN(C)c1ccnc(CSc2nc3ccccc3[nH]2)c1Cl)Cc1ccco1` [Compound 10, 2-{3-Chloro-4-{N-[2-(N-furfuryl-N-methylamino)ethyl]-N-methylamino}-2-pyridyl}-methylthio-1H-benzimidazole trihydrochloride] it is below 1 µg/mL; for `CN(CCN1CCC(c2ccccc2)CC1)c1ccnc(CSc2nc3ccccc3[nH]2)c1Cl` [Compound 11, 2-{3-Chloro-4-{N-[2-(4-phenyl-piperidino)-ethyl]-N-methylamino}-2-pyridyl}-methylthio-1H-benzimidazole] it is below 1 µg/mL. Compound `CN(CCN1CCC(Cc2ccccc2)CC1)c1ccnc(CSc2nc3ccccc3[nH]2)c1Cl` [Compound 12, 2-{3-Chloro-4-{N-[2-[4-benzyl-piperidino)-ethyl]-N-methylamino}-2-pyridyl}-methylthio-1H-benzimidazole] showed an MIC below 1 µg/mL. In turn, `CN(CCN1CCCCC1)c1ccnc(CSc2nc3ccccc3[nH]2)c1Cl` [Compound 13, 2-{3-Chloro-4-[N-(2-piperidinoethyl)-N-methylamino]-2-pyridyl}-methylthio-1H-benzimidazole] had an MIC below 1 µg/mL. Compound `COc1cc2c(cc1OC)CN(CCN(C)c1ccnc(CSc3nc4ccccc4[nH]3)c1Cl)CC2` [Compound 14, 2-{3-Chloro-4-{N-[2-(6,7-dimethoxy-1,2,3,4-tetrahydro-2-isoquinolinyl)ethyl]-N-methylamino}-2-pyridyl}-methylthio-1H-benzimidazole] registered an MIC below 1 µg/mL.

Consider `CN(CCN1CCN(c2ccccc2)CC1)c1ccnc(CSc2nc3ccccc3[nH]2)c1Cl` [Compound 15, 2-{3-Chloro-4-{N-[2-(4-phenylpiperazino)-ethyl]-N-methylamino}-2-pyridyl}-methylthio-1H-benzimidazole hydrochloride], for which the MIC is below 1 µg/mL.

As to `CN(CCN1CCN(Cc2ccccc2)CC1)c1ccnc(CSc2nc3ccccc3[nH]2)c1Cl` [Compound 16, 2-{3-Chloro-4-{N-[2-(4-benzylpiperazino)-ethyl]-N-methylamino}-2-pyridyl}-methylthio-1H-benzimidazole trihydrochloride], the MIC was below 1 µg/mL. Take `COc1ccccc1N1CCN(CCN(C)c2ccnc(CSc3nc4ccccc4[nH]3)c2Cl)CC1` [Compound 17, 2-{3-Chloro-4-{N-[2-(4-(2-methoxyphenyl)-piperazino)-ethyl]-N-methylamino}-2-pyridyl}-methylthio-1H-benzimidazole trihydrochloride]: the MIC was below 1 µg/mL. On the same count and under the same terms, in the case of `CN(CCCN1CCc2ccccc2C1)c1ccnc(CSc2nc3ccccc3[nH]2)c1Cl` [Compound 18, 2-{3-Chloro-4-{N-[3-(1,2,3,4-tetrahydro-2-isoquinolinyl)-propyl]-N-methylamino}-2-pyridyl}-methylthio-1H-benzimidazole trihydrochloride] it was below 1 µg/mL.

As for `CN(CCCN(C)c1ccnc(CSc2nc3ccccc3[nH]2)c1Cl)Cc1ccccc1` [Compound 19, 2-{3-Chloro-4-{N-[3-(N-benzyl-N-methylamino)propyl]-N-methylamino}-2-pyridyl}-methylthio-1H-benzimidazole trihydrochloride], the MIC was below 1 µg/mL. `COc1cc2c(cc1OC)CN(CCCN(C)c1ccnc(CSc3nc4ccccc4[nH]3)c1Cl)CC2` [Compound 20, 2-{3-Chloro-4-{N-[3-(6,7-dimethoxy-1,2,3,4-tetrahydro-2-isoquinolinyl)-propyl]-N-methylamino}-2-pyridyl}-methylthio-1H-benzimidazole trihydrochloride] registered an MIC below 1 µg/mL. Still for that read-out and setting: the figure for `CN(CCCN1CCC(Cc2ccccc2)CC1)c1ccnc(CSc2nc3ccccc3[nH]2)c1Cl` [Compound 21, 2-{3-Chloro-4-{N-[3-(4-benzyl-piperidino)-propyl]-N-methylamino}-2-pyridyl}-methylthio-1H-benzimidazole trihydrochloride] is below 1 µg/mL.
